Patent US7842294B2, “Proteins belonging to the Bcl-2 family and fragments thereof, and their use in cancer patients” (Survac APS, priority 2003, dated 2010)
Ends that are not written are not given here.

How the values were obtained:
[1] = tested on: HLA-A2 positive breast cancer cell line MDA-MB-231; experiment: 51Cr-release cytotoxicity assay with bcl208-isolated T cells; assay type: cell-based, human; conditions: enriched bcl208 reactive T cells, Bcl-2 expressing
[2] = tested on: HLA-A2 negative breast cancer cell line ZR75-1
[3] = tested on: antigen-specific CTL in PBL; experiment: Granzyme B (GrB) ELISPOT; assay type: cell-based, human
Description: The Granzyme B (GrB) ELISPOT assay was used for measuring antigen-specific CTL cytotoxicity as described. Briefly, nitrocellulose bottomed 96-well plates (MultiScreen MAIP N45, Millipore) were coated with GrB Capture Antibody (BD Biosciences, Brondby, Denmark). The wells were washed and blocked by X-vivo medium with 5% human serum. The cells were added at different cell concentrations. T2 cells and peptides were then added to each well and the plates were incubated 4 hours, medium was discarded and the wells were washed prior to addition of GrB Detection Antibody (BD Biosciences). The plates were incubated for 2 hours, washed and Avidin horseradish peroxidase (BD Biosciences) was added to each well. Plates were incubated at RT for 1 hour AEC Substrate Reagent (BD Biosciences) was added to each well and incubated at RT for 5-10 min. The reaction was terminated by washing with tap-water upon the emergency of red spots. The spots were counted and the peptide specific CTL frequency was calculated like for the INF-γ ELISPOT. All assays were performed in duplicate or triplicates for each peptide antigen.

HLA-A2 = target: T1, HLA-A2 (Homo sapiens, UniProt P04439, D140Y/D185E/D98H/E176V/E277Q/G131W/G231S/I119V/I121R/I166T/I218V/L300P/L318F/N151K/N90K/P208A/P217A/Q86G/Q94H/R138H/R169H/T345S); experiment: Assembly assay for peptide binding to MHC class I molecules (stabilisation of HLA from TAP-deficient T2 cells); conditions: recovery of HLA-A2 measured at 50, 5, 0.5, 0.05 μM peptide; read-out: C50 (concentration of the peptide required for half maximal binding to HLA-A2)
T1 construct: empty HLA molecules released upon cell lysis, from the TAP-deficient cell line T2; endogenous in cells; host or cells: T2 (TAP-deficient cell line), metabolically labelled with [35S]-methionine and lysed
Description: This assembly assay is carried out as described previously (2), and it is based on stabilisation of the HLA molecule after loading of peptide to the peptide transporter deficient cell line T2. Subsequently, correctly folded stable HLA heavy chains are immunoprecipitated using conformation dependent antibodies and the peptide binding is quantitated.
The binding affinity of the synthetic peptides (Invitrogen, Carlsbad, Calif., USA) to HLA-A2 molecules, metabolically labelled with [^35S]-methionine, was measured in the assembly assay, as described previously. The assay is based on peptide-mediated stabilisation of empty HLA molecules released upon cell lysis, from the TAP-deficient cell line T2. Stably folded HLA-molecules were immune-precipitated using the HLA class I-specific, conformation-dependent mAb W6/32, and separated by isoelectric focusing (IEF) gel electrophoresis. MHC heavy chain bands were quantified using the ImageGauge Phosphorimager program (FUJI photo film Co., Carrollton, Tex., USA). The intensity of the band is directly related to the amount of peptide-bound class I MHC complex recovered during the assay. Subsequently, the extent of stabilisation of HLA-A2 is directly related to the binding affinity of the added peptide. The recovery of HLA-A2 was measured in the presence of 50, 5, 0.5, 0.05 μM of the relevant peptide. The C50 value was calculated for each peptide as the peptide concentration sufficient for half maximal stabilisation.
The amino acid sequence of the Bcl-2 protein was screened for the most probable HLA-A2 nona- and decamer peptide epitopes, using the main HLA-A2 specific anchor residues (2). […] The assembly assay is based on stabilisation of the class I molecule after loading of different concentrations of peptide to the TAP-deficient cell line T2. Subsequently correctly folded stable MHC heavy chains are immunoprecipitated using conformation-dependent antibodies.

[4] = tested on: peptide epitope-specific interferon-γ releasing effector cells in PBL; experiment: IFN-γ ELISPOT on PBL stimulated once in vitro with peptide; assay type: cell-based, human
Description: To extend the sensitivity of the ELISPOT assay, PBL were stimulated once in vitro prior to analysis. At day 0, PBL or crushed lymph nodes were thawed and plated in 2 ml/well at a concentration of 2×10^6 cells in 24-well plates (Nunc, Denmark) in X-vivo medium (Bio Whittaker, Walkersville, Md.), 5% heat-inactivated human serum, and 2 mM of L-glutamine in the presence of 10 μM of peptide. Two days later 20 IU/ml recombinant interleukin-2 (IL-2) (Chiron, Ratingen, Germany) was added to the cultures. The cultured cells were tested for reactivity in the ELISPOT on day 12.
The ELISPOT assay was used to quantify peptide epitope-specific interferon-γ releasing effector cells as described previously (4). Briefly, nitrocellulose bottomed 96-well plates (MultiScreen MAIP N45, Millipore, Hedehusene, Denmark) were coated with anti-IFN-γ antibody (1-D1K, Mabtech, Nacka, Sweden). The wells were washed, blocked by X-vivo medium, and cells added in duplicates at different cell concentrations. Peptides were then added to each well and the plates were incubated overnight. The following day, media was discarded and the wells were washed prior to addition of biotinylated secondary antibody (7-B6-1-Biotin, Mabtech). The plates were incubated for 2 hours, washed and Avidin-enzyme conjugate (AP-Avidin, Calbiochem, Life Technologies) was added to each well. Plates were incubated at RT for 1 hour and the enzyme substrate NBT/BCIP (Gibco, Life Technologies) was added to each well and incubated at RT for 5-10 min. The reaction was terminated by washing with tap-water upon the emergency of dark purple spots. The spots were counted using the ImmunoSpot® Series 2.0 Analyzer (CTL Analyzers, LLC, Cleveland, US) and the peptide specific CTL frequency could be calculated from the numbers of spot-forming cells. All assays were performed in triplicates for each peptide antigen.

T2 cells = experiment: 51Cr-release cytotoxicity assay with bcl208-isolated T cells; assay type: cell-based, human; conditions: bcl208 reactive T cells enriched from a breast cancer patient, day 5
[5] = PBL from 15 HLA-A2 positive breast cancer patients

PLFDFSWLSL [bcl208]
lysis of MDA-MB-231 cells [1]: efficiently lysed | cytotoxicity against ZR75-1 cells [2]: no cytotoxicity was observed | GrB release in controls ([3]; breast cancer patient no. 16 and healthy control h1): no GrB release was detected | recognition of peptide-pulsed T2 cells by CTL clones (GrB ELISPOT) ([3]; clones from HLA-A2/bcl208 bead-isolated cells, data not shown): Several of these clones showed specific recognition | EC50 (HLA-A2): 7 µM | healthy individuals with CTL response ([4]; 12 healthy HLA-A2 positive individuals): one | patients with spontaneous CTL response [4, 5]: twelve | patients with spontaneous CTL response (%) [4, 5]: ≈ 80% | CLL patients with Bcl-2 response ([4]; ten HLA-A2 positive CLL patients, reactivity against bcl208 and bcl214, not broken down by peptide): five | AML patients with Bcl-2 response ([4]; three AML patients, reactivity against bcl208 and bcl214, not broken down by peptide): two | pancreatic cancer patients with CTL response ([4]; two HLA-A2 positive pancreatic cancer patients): both | killing of T2 cells loaded with peptide versus unloaded (T2 cells): only T2 cells pulsed with bcl208 were killed
